Data from patent US20240150755A1, “MODULATING REGULATORY T CELL FUNCTION IN AUTOIMMUNE DISEASE AND CANCER” (Salk Institute for Biological Studies, priority 2021, published 2024).

How the values were obtained:
[1] = system: Foxp3-bound sites; assay: Foxp3 ChIP-seq in Treg cells; assay type: cell-based, mouse
Excerpt: For large scale Treg culture, Tregs were first expanded in Rosa-Cas9/Foxp3^Thy1.1 mice by injecting IL-2:IL-2 antibody immune complex according protocol described in Webster et. al (J Exp Med 206, 751-760, 2009). Spleen and lymph node Treg cells were labeled with PE-conjugated Thy1.1 antibody and isolated by magnetic selection using anti-PE microbeads (Mitenyl #130-048-801). All isolated Treg cells were activated by plate bound anti-CD3 and anti-CD28 antibodies and cultured with X-VIVO® 20 media (LONZA #04-448Q) supplemented by 1× Pen/Strep, 1× Sodium pyruvate, 1× HEPES, 1× GlutaMax™, 55 μM beta-mercaptoethanol in the presence of IL-2 at 500 units/mL. For experiments with Brd9 degradation, Treg cells were treated at day 0 with 2.5 μM dBRD9 (Tocris #6606) and cultured for four days for RNA- and ChIP-seq and 0.16-10 μM treated at day 0 and cultured dBRD9 for four days for Foxp3 MFI, cell viability and cell proliferation assays. Live cells were enriched by Ficoll-Paque® 1.084 (GE Health 17-5446-02) for RNA-seq and ChIP-seq.
Treg cells were collected and cross-linked first in 3 mM disuccinimidyl glutarate (DSG) in 1×PBS for thirty minutes then in 1% formaldehyde for another ten minutes, both at RT, for chromatin binding protein ChIP or in 1% formaldehyde only for histone modification ChIP. After quenching the excess cross-linker with a final concentration of 125 mM glycine, the cells were washed in 1× PBS, pelleted, flash-frozen in liquid nitrogen, and stored at −80° C. Cell pellets were thawed on ice and incubated in lysis solution (50 mM HEPES-KOH pH 8, 140 mM NaCl, 1 mM EDTA, 10% glycerol, 0.5% NP40, 0.25% Triton X-100) for ten minutes. The isolated nuclei were washed with wash solution (10 mM Tris-HCl pH 8, 1 mM EDTA, 0.5 mM EGTA, 200 mM NaCl) and shearing buffer (0.1% SDS, 1 mM EDTA, 10 mM Tris-HCl pH 8) then sheared in a Covaris® E229 sonicator for ten minutes to generate DNA fragments between ˜200-1000 base pairs (bp). After clarification of insoluble material by centrifugation, the chromatin was immunoprecipitated overnight at 4° C. with antibodies against Foxp3, Smarca4, Brd9, Phf10 or H3K27ac. The next day, the antibody bound DNA was incubated with Protein A+G Dynabeads™ (Invitrogen) in ChIP buffer (50 mM HEPES-KOH pH 7.5, 300 mM NaCl, 1 mM EDTA, 1% Triton X-100, 0.1% DOC, 0.1% SDS), washed and treated with Proteinase K and RNase A. Cross-linking was reversed by incubation at 55° C. for two and a half hours. Purified ChIP DNA was used for library generation (NuGen Ovation® Ultralow Library System V2) according to manufacturer's instructions for subsequent sequencing.
Single-end 50 bp or paired-end 42 bp reads were aligned to mouse genome mm10 using STAR alignment tool (V2.5) (Dobin et al., Bioinformatics 29:15-21, 2013). ChIP-Seq peaks were called using findPeaks within HOMER using parameters for histone (-style histone) or transcription factor (-style factor) (homer.ucsd.edu/homer/index.html). Peaks were called when enriched >two-fold over input and >four-fold over local tag counts, with FDR 0.001. For histone ChIP, peaks within a 1000 bp range were stitched together to form regions. Differential ChIP peaks were found by merging peaks from control and experiment groups and called using getDiffExpression.pl with fold change ≥1.5 or ≤−1.5, Poisson p value<0.0001.

[2] = system: MC38 colorectal tumor cell line; assay: Adoptive T cell transfer and MC38 tumor model; assay type: in vivo, mouse
Excerpt: Similar to the “Adoptive T cells transfer-induced colitis model,” Treg cells were activated in vitro and transduced with pSIRG-GFP expressing sgNT or sgBrd9. Four days after transduction, the GFP+ transduced Treg were FACS sorted. Concurrently, Treg depleted CD4 and CD8 T cells isolated from Rosa-Cas9/Foxp3^Thy1.1 mice were used as effector T cells. A total of 1 million pSIRG-sgRNA transduced GFP+ Treg cells, 1 million effector CD8 T cells, and 2 million Treg-depleted CD4 T cells were mixed and transferred into Rag1^−/− recipient mice. On the following day, mice were implanted with 0.5 million MC38 cells by subcutaneous injection on the flank of mouse. When palpable tumor appeared, tumor size was measured every two day by electronic calipers. At the end point, spleen and tumor were collected for immune profiling. For tumor processing, tumor tissues were minced into small pieces and digested with 0.5 mg/mL Collagenase IV (Sigma #C5138) and DNAase I (Roche #4716728001) for 20 minutes and passed through […] cell strainer to collect single cell suspension. Isolated cells were stimulated with PMA/Ionomycin and GolgiPlug™ for 5 hours, and then were subjected to Foxp3 and cytokines staining with eBioscience® Fix/Perm buffer (eBioscience #00-5523-00).

[3] = transferred Treg population, vs sgNT

sgBrd9: sgRNA targeting Brd9, ATTAACCGGTTTCTCCCGGG (SEQ ID NO: 12) (expressed or natural sequence)
Brd9-dependent sites where binding was not rescued by restoring Foxp3 expression ([1]; sgBrd9 Treg cells plus ectopic Foxp3): ~71% | Foxp3 binding at CNS2/CNS0 ([1]; sgRNA transduced Treg cells): marked reduction of Foxp3 binding at CNS2/CNS0 | Foxp3 binding with ectopic Foxp3 expression ([1]; sgRNA transduced Treg cells plus MIGR-Foxp3): partially restored Foxp3 binding | Foxp3 binding at a subset of Foxp3 sites (Brd9-dependent sites) ([1]; sgRNA transduced Treg cells, FC1.5, Poisson p<0.0001): significantly reduced | tumor growth ([2]; Rag1^−/− mice receiving sgRNA transduced Treg cells vs sgNT Treg cells): significantly slower | percentage of transferred Treg cells ([2]; relative to sgNT Treg cells): reduced | GFP^+Foxp3^− ex-Treg population [2, 3]: increase | percentage of ex-Treg cells producing IFN-γ [2, 3]: higher percentage | increase in the ratio of CD8 T cells to Treg cells ([2]; tumor and spleen, sgBrd9 versus sgNT): 2-3 fold | CD4 and CD8 T cell tumor infiltration ([2]; vs sgNT Treg cells): significantly increased | percentage of IFN-γ producing intra-tumor CD4 and CD8 T cells ([2]; vs sgNT Treg condition): significantly greater
